Reference: US6713513B2, “Method for treating cartilage related diseases” (Juneng Industry Co., Ltd., priority 2001, dated 2004)
Marks after values point to notes of the source that are not given here.

Assays:
[1] = system: mRNA of collagen I of osteocyte; assay: Hybridization in situ of mRNA of collagen I, osteocytes, femur of rats with retinoic acid osteoporosis; assay type: in vivo, rat; conditions: for Positive Case Nos. of osteocyte (mRNA of collagen I) / Positive percentage of mRNA of collagen I, osteocyte: 100 mg/kg body weight, 10 weeks
Method: (§1) The rats were administered drugs for 10 weeks, respectively.
(§2) Collagen I was stained by hybridization in situ, following the directions of the kit. After specific hybridization, mRNA of collagen I was developed by 3,3′-diaminobenzidine (DAB). The slide was routinely dehydrated and mounted.
(§3) X2 test was conducted to the experimental data.

[2] = system: collagen I of chondrocyte; assay: Immunohistochemical staining of collagen I (ABC method), chondrocytes, rats with retinoic acid osteoporosis; conditions: for Positive Case Nos. of chondrocyte (collagen I immunohistochemical staining) / Positive percentage of collagen I by immunohistochemical staining, chondrocyte: 100 mg/kg body weight, 10 weeks
Method: (§4) Grouping of animals: 66 male 3-month-aged rats were used in the present test. Eight rats were randomly selected as blank-control group, which were fed with normal diet and tap water. The other 58 rats were randomly divided into 9 groups, and were continuously administered retinoic acid with a dosage of 70 mg/kg body weight and volume of 10 ml/kg body weight, and were fed with low calcium diet meanwhile. After two weeks of administration of retinoic acid, stop the drug and thus establishing osteoporosis models.
(§5) The rats were administered drugs for 10 weeks, respectively. During the whole test period, each group was fed with low calcium diet and de-ionized water except that the blank-control group was fed with normal diet. Then the lower one third of right femur of each rat was extracted, and preserved at −20° C.
Collagen I was immunohistochemically stained by ABC method, following the directions of kit. Collagen I was developed by DAB. The slide was routinely dehydrated and mounted. (The detection kit was provided by Wuhan Doctor Microbiologic Engineering Co. Ltd., China. Cat. No: BA0325)
The results were observed by microscopy, which was expressed by positive percentage. X2 test was conducted to the experimental data.

[3] = system: bone tissue of the rat with osteoporosis caused by retinoic acid; assay: Histochemical staining (M-S, T-B, HE, V-K silver) of bone and cartilage; conditions: for Articular cartilage / cartilage matrix: blank-control group as normal reference; for Bone trabeculae in cancellous bone (figure legends): FIGS. 7, 13, 14; for Formation of new bone: compared with blank-control group
Method: as §4
(4) Calcium citrate group: 6 rats, administered calcium citrate with a dosage of 100 mg/kg body weight
(5) Sodium hydroxyethyl phosphate group: 6 rats, administered sodium hydroxyethyl phosphate with a dosage of 100 mg/kg body weight
as §5
(2) Histochemical Staining
a Masson-Goldner Lrichrone staining (M-S staining)
b Toluidine Blue staining (T-B staining)
c Hematoxylin-eosin (HE) staining
d Von Kossa silver staining of partial slice (V-K silver staining).

[4] = system: mRNA of collagen I of chondrocyte; assay: Hybridization in situ of mRNA of collagen I, chondrocytes, femur of rats with retinoic acid osteoporosis; assay type: in vivo, rat
Method: as §1, §2, §3

[5] = 100 mg/kg body weight, 10 weeks

Compound	Positive Case Nos. of osteocyte (mRNA of collagen I) [1]	Positive percentage of mRNA of collagen I, osteocyte [1]	Positive Case Nos. of chondrocyte (collagen I immunohistochemical staining) [2]	Positive percentage of collagen I by immunohistochemical staining, chondrocyte [2]	Articular cartilage / cartilage matrix ([3]; 10 weeks)	Bone trabeculae in cancellous bone (figure legends) [3]	Staining of glycogen in cancellous bone (figure legends) ([3]; histochemical staining of glycogen, FIGS. 8, 13, 14)	Positive percentage of mRNA of collagen I compared with Model-control group ([1]; rat, in vivo)	Positive percentages of collagen I by immunohistochemistry, comparison of groups ([2]; rat, in vivo)	Expression percentage of mRNA of collagen I compared with model-control group ([4]; rat, in vivo)	Nourishing blood vessels of the bone ([3]; 10 weeks)	Formation of new bone ([3]; 10 weeks)	Osteocollagenous fibers by silver staining (figure legends) ([3]; silver staining, FIGS. 9, 10, 11, 20)	Positive Case Nos. of chondrocyte (mRNA of collagen I) [4, 5]	Positive percentage of mRNA of collagen I, chondrocyte [4, 5]
O=P([O-])([O-])OCCO.[Na+].[Na+] [Sodium hydroxyethyl phosphate, sodium hydroxyethyl phosphate]	2	33.3%	2	33.3%	developed retrograde affection	excessive and disorganized	less glycogen	–	–	–	–	–	–	–	–
calcium L-threonate	–	–	–	–	Cartilage collagen fibers and matrix thickened	thick, dense and ordered	–	significantly higher than Model-control group	relatively higher	significantly higher than that of model-control group	increased	increased	parallel, regular and abundant	–	–
O=C([O-])CC(O)(CC(=O)[O-])C(=O)[O-].O=C([O-])CC(O)(CC(=O)[O-])C(=O)[O-].[Ca+2].[Ca+2].[Ca+2] [Calcium citrate, calcium citrate]	2	33.3%	0 (0%)**	0 (0%)**	–	–	–	–	–	–	–	less than those of the blank-control group	–	0 (0%)	0 (0%)
